In patent EP4667483A1, “HUMAN TRANSFERRIN RECEPTOR-BINDING PEPTIDE” (JCR Pharmaceuticals Co., Ltd., priority 2023, dated 2024):
Numbered stars: 1 amine (or outer) side, 2 acyl side, 3 side chain; on linkers, the order of the positions; unused ones are H or OH. Bridge positions count the residues as written; N and C are the ends. Square brackets hold non-standard residues; d marks the D form. Peptide text beside a SMILES is read from it. * marks the point of attachment. CH2CO(D-glucamine) = O=C(C*)NC[C@H](O)[C@@H](O)[C@H](O)[C@H](O)CO; NH(1-deoxy-D-glucityl) = OC[C@@H](O)[C@@H](O)[C@H](O)[C@@H](O)CN*; CH2CON(CH2CH2)2NCH2COOH = O=C(O)CN1CCN(C(=O)C*)CC1; NMePhe(4-COOH) = CN[C@@H](Cc1ccc(C(=O)O)cc1)C(=O)O; X1 = O=C([C@H](Cc1cccc(C(=O)[*:3])c1)N[*:1])[*:2]; Phe(3-COOH) = N[C@@H](Cc1cccc(C(=O)O)c1)C(=O)O; Trp(7-aza) = N[C@@H](Cc1c[nH]c2ncccc12)C(=O)O; NH(CH2CH2O)8Me = COCCOCCOCCOCCOCCOCCOCCOCCN*; NMePhe(3-Cl) = CN[C@@H](Cc1cccc(Cl)c1)C(=O)O; 3Pal(6-NH2) = Nc1ccc(C[C@H](N)C(=O)O)cn1; NMeW = CN[C@@H](Cc1c[nH]c2ccccc12)C(=O)O; Lys(N3) = [N-]=[N+]=NCCCC[C@H](N)C(=O)O; NMeY = CN[C@@H](Cc1ccc(O)cc1)C(=O)O; Nva(3-Et) = CCC(CC)[C@H](N)C(=O)O; NMeF = CN[C@@H](Cc1ccccc1)C(=O)O; PEG4 = NCCOCCOCCOCCOCCC(=O)O; Carboxymethyl = O=C(O)C*

Legend:
[1] = target: T1, human transferrin receptor (hTfR) (Homo sapiens, UniProt P02786); assay: SPR measurement under pH 6.0 conditions (Biacore T200, NTA chip, immobilized hTfR); format: binding; conditions: read-out: hTfR SPR pH6.0 KD
Experimental: (§1) Molecular interactions between the synthesized peptides and the transferrin receptor (hTfR) were evaluated by surface plasmon resonance (SPR) using the following method. The specific assay procedure is described below.
An NTA sensor chip (Cytiva) was inserted in a Biacore T200 (Cytiva), a priming operation was performed 3 times with a running buffer: HBS-P+ pH 6.0 (Cytiva), and an equilibrium state was created at a flow rate of 30 µL/min. A ligand immobilization operation was carried out at a flow rate of 10 µL/min.
The surface of the NTA sensor chip was washed with 350 mM EDTA solution, nickel ions were loaded into the carbomethyldextran chains of the sensor chip with a 500 µM aqueous nickel chloride solution, and then washing was performed with 3 mM EDTA solution. After mixing 50 µL of each of 60 mM EDC solution (Cytiva) and 650 mM NHS solution (Cytiva), the mixture was reacted for 420 seconds at a flow rate of 10 µL/min. 150 µL of 0.2 µM hTfR solution was prepared by diluting with 10 mM acetic acid solution (pH 5.0), and reacted for 420 seconds at a flow rate of 10 µL/min to immobilize hTfR on the NTA sensor chip. For the human transferrin receptor (hTfR), the recombinant hTfR described in Example 2 of WO2018/124121 was used. After immobilization, capping was performed by reacting with 1.0 M ethanolamine aqueous solution (Cytiva) at a flow rate of 10 µL/min for 420 seconds. Peptide lysate prepared in DMSO to 10 mM was diluted with the running buffer to a final concentration of 10 µM peptide lysate, and then peptide solutions of 250 nM, 125 nM, 62.5 nM, 25 nM, and 12.5 nM were prepared. The kinetics of the peptide against hTfR was obtained by SPR measurement using the above samples.
(§2) The kinetic evaluation model was single-cycle kinetics, and curve fitting was performed using Biacore T200 Evaluation Software Version 3.0 (Cytiva). The binding of the peptide to hTfR was evaluated by performing curve fitting on the obtained sensorgram by the least squares method and obtaining the kon value, the koff value, and the KD value.

[2] = target: T1, human transferrin receptor (hTfR); assay: SPR measurement under pH 7.4 conditions (Biacore T200, CM3 chip, hTfR captured by His Tag antibody); format: binding; conditions: SPR, pH 7.4
Experimental: as §1
An CM3 sensor chip (Cytiva) was inserted into BiacoreT200 (Cytiva), then a priming operation was performed three times by using a running buffer: HBS-P+, pH7.4 (Cytiva), and an equilibrium state was created at a flow rate of […]. Ligand immobilization was performed at a flow rate of 10 µL/min. After mixing 50 µL each of 60 mM EDC solution (Cytiva) and 650 mM NHS solution (Cytiva), the mixture was reacted at a flow rate of 10 µL/min for 420 seconds. 150 µL of […] THE His Tag Antibody, mAb, Mouse (GenScript) was prepared by diluting with 10 mM acetic acid solution (pH 5.0), and reacted at a flow rate of 10 µL/ min for 420 seconds. Then, THE His Tag Antibody, mAb, Mouse (GenScript) was immobilized as a capture molecule on the CM3 sensor chip. After immobilization, capping was performed by reacting with 1.0 M ethanolamine solution (Cytiva) at a flow rate of 10 µL/min for 420 seconds. 300 nM hTfR was captured at a flow rate of 10 µL/min, a peptide solution prepared at 10 mM in DMSO was diluted with running buffer to achieve a final concentration of 10 µM, and peptide solutions at 250 nM, 125 nM, 62.5 nM, 25 nM, and 12.5 nM were prepared. . The peptide samples were reacted at a flow late of 30 µL/min for 120 seconds, followed by dissociation for 600 seconds. The kinetics of the peptide against hTfR was obtained by SPR measurement for the above samples.
as §2

[3] = Table 2-1-2, read-out: hTfR SPR pH7.4 KD(n M)
[4] = Table 2-2, read-out: hTfR SPR pH7.4 KD

T1 sequence (P02786 whole entry): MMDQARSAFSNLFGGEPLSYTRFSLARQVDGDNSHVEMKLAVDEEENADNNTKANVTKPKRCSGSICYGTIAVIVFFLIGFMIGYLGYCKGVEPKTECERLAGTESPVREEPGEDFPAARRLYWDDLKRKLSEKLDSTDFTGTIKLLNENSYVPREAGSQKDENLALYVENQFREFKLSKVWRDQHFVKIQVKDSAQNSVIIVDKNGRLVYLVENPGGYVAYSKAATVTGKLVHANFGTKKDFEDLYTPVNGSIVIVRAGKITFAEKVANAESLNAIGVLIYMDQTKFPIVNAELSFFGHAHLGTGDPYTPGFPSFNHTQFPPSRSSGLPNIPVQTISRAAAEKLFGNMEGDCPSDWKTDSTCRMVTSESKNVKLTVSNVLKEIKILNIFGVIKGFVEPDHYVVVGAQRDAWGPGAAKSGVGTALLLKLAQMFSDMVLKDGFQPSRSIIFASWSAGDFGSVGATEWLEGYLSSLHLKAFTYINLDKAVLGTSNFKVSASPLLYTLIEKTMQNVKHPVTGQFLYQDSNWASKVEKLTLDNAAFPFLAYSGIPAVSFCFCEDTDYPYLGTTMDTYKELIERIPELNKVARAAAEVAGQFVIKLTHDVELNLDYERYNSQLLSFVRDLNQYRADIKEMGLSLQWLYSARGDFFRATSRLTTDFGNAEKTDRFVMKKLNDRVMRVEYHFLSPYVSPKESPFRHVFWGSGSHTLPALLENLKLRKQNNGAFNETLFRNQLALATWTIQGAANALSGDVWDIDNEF

| Kd [2, 3] [nM] | Kd [2, 4] [nM] | SMILES | further results |
| --- | --- | --- | --- |
| – | – | CC[C@H](C)[C@@H]1NC(=O)[C@H](Cc2ccc(OCC(=O)NC[C@H](O)[C@@H](O)[C@H](O)[C@H](O)CO)cc2)NC(=O)[C@H](Cc2ccc(O)cc2)NC(=O)[C@H](CC(N)=O)NC(=O)[C@H](Cc2c[nH]c3ccccc23)NC(=O)[C@H](C(C)C)NC(=O)[C@H](Cc2cccc(Cl)c2)N(C)C(=O)[C@H](C(C)C)NC(=O)[C@H](C)NC(=O)CSC[C@@H](C(=O)NCCOCCOCCOCCOCCC(N)=O)NC(=O)[C@H](Cc2ccc(O)cc2)N(C)C(=O)[C@H](Cc2ccccc2)NC(=O)[C@H](CCC(N)=O)NC(=O)[C@H](CCC(=O)NC[C@H](O)[C@@H](O)[C@H](O)[C@H](O)CO)NC(=O)[C@H]([C@@H](C)CC)NC1=O [compound 39] ({CH2CO}-AV[NMePhe(3-Cl)]VWNYY(CH2CO(D-glucamine))IIE(NH(1-deoxy-D-glucityl))QF[NMeY]C[PEG4]-NH2; thioether N-15) | Kd ([1]; pH 6.0, single-cycle kinetics): 12.4 nM |
| – | – | CCC(CC)[C@@H]1NC(=O)[C@H](Cc2ccc(O)cc2)NC(=O)[C@H](Cc2ccc(O)cc2)NC(=O)[C@H](CC(N)=O)NC(=O)[C@H](Cc2c[nH]c3ccccc23)N(C)C(=O)[C@H](C(C)C)NC(=O)[C@H](Cc2ccccc2)N(C)C(=O)[C@H](C(C)C)NC(=O)[C@H](C)NC(=O)CSC[C@@H](C(=O)NCCOCCOCCOCCOCCC(N)=O)NC(=O)[C@H](Cc2ccc(O)cc2)N(C)C(=O)[C@H](Cc2ccc(O)cc2)NC(=O)[C@H](CCCNC(=N)N)NC(=O)[C@H](CCCCN)NC(=O)[C@H]([C@@H](C)CC)NC1=O [compound 117] | Kd ([1]; SPR, pH 6.0, peptide with the linker named in the table): 13.8 nM |
| 6.55 | – | CC[C@H](C)[C@@H]1NC(=O)[C@H](Cc2ccc(OCC(=O)N3CCN(CC(=O)O)CC3)cc2)NC(=O)[C@H](Cc2ccc(N)nc2)NC(=O)[C@H](CC(N)=O)NC(=O)[C@H](Cc2c[nH]c3ncccc23)NC(=O)[C@H](C(C)C)NC(=O)[C@H](Cc2cccc(Cl)c2)N(C)C(=O)[C@H](C(C)C)NC(=O)[C@H](C)NC(=O)CSC[C@@H](C(=O)NCCOCCOCCOCCOCCC(N)=O)NC(=O)[C@H](Cc2ccc(O)cc2)N(C)C(=O)[C@H](Cc2cccc(C(=O)O)c2)NC(=O)[C@H](CCCNC(=N)N)NC(=O)[C@H](CCC(=O)NCCOCCOCCOCCOCCOCCOCCOCCOC)NC(=O)[C@H]([C@@H](C)CC)NC1=O [compound 159] ({CH2CO}-AV[NMePhe(3-Cl)]V[Trp(7-aza)]N[3Pal(6-NH2)]Y(CH2CON(CH2CH2)2NCH2COOH)IIE(NH(CH2CH2O)8Me)R[Phe(3-COOH)][NMeY]C[PEG4]-NH2; thioether N-15) | – |
| 20.8 | – | CC[C@H](C)[C@@H]1NC(=O)[C@H](Cc2ccc(OCC(=O)N3CCN(CC(=O)O)CC3)cc2)NC(=O)[C@H](Cc2ccc(N)nc2)NC(=O)[C@H](CC(N)=O)NC(=O)[C@H](Cc2cn(CC(=O)O)c3ccccc23)NC(=O)[C@H](C(C)C)NC(=O)[C@H](Cc2cccc(Cl)c2)N(C)C(=O)[C@H](C(C)C)NC(=O)[C@H](C)NC(=O)CSC[C@@H](C(=O)NCCOCCOCCOCCOCCC(N)=O)NC(=O)[C@H](Cc2ccc(O)cc2)N(C)C(=O)[C@H](Cc2ccncc2)NC(=O)[C@H](CCCNC(=N)N)NC(=O)[C@H](CCC(=O)NCCOCCOCCOCCOCCOCCOCCOCCOC)NC(=O)[C@H]([C@@H](C)CC)NC1=O [compound 160] | – |
| 12200 | – | CCC(CC)[C@@H]1NC(=O)[C@H](Cc2ccc(OCC(=O)O)cc2)NC(=O)[C@H](Cc2ccc(N)nc2)NC(=O)[C@H](CC(N)=O)NC(=O)[C@H](Cc2c[nH]c3ncccc23)NC(=O)[C@H](C(C)C)NC(=O)[C@H](Cc2cccc(Cl)c2)N(C)C(=O)[C@H](C(C)C)NC(=O)[C@H](C)NC(=O)CSC[C@@H](C(=O)NCCOCCOCCOCCOCCC(N)=O)NC(=O)[C@H](Cc2ccc(C(=O)O)cc2)N(C)C(=O)[C@H](Cc2cccc(C(=O)O)c2)NC(=O)[C@H](CCCNC(=N)N)NC(=O)[C@H](CCC(=O)NCCOCCOCCOCCOCCOCCOCCOCCOC)NC(=O)[C@H]([C@@H](C)CC)NC1=O [compound 161] ({CH2CO}-AV[NMePhe(3-Cl)]V[Trp(7-aza)]N[3Pal(6-NH2)]Y(Carboxymethyl)[Nva(3-Et)]IE(NH(CH2CH2O)8Me)R[Phe(3-COOH)][NMePhe(4-COOH)]C[PEG4]-NH2; thioether N-15) | – |
| – | – | CCC(CC)[C@@H]1NC(=O)[C@H](Cc2ccc(O)cc2)NC(=O)[C@H](Cc2ccc(O)cc2)NC(=O)[C@H](CC(N)=O)NC(=O)[C@H](Cc2c[nH]c3ccccc23)N(C)C(=O)[C@H](C(C)C)NC(=O)[C@H](Cc2ccccc2)N(C)C(=O)[C@H](C(C)C)NC(=O)[C@H](C)NC(=O)CSC[C@@H](C(=O)NCC(=O)N[C@@H](CCCCN=[N+]=[N-])C(N)=O)NC(=O)[C@H](Cc2ccc(O)cc2)N(C)C(=O)[C@H](Cc2cccc(C(=O)NCCOCCOCCOCCOCCC(=O)O)c2)NC(=O)[C@H](CCCNC(=N)N)NC(=O)[C@H](CCCCN)NC(=O)[C@H]([C@@H](C)CC)NC1=O [compound 195] ({CH2CO}-AV[NMeF]V[NMeW]NYY[Nva(3-Et)]IKR[X1](PEG4)[NMeY]CG[Lys(N3)]-NH2; thioether N-15) | Kd ([2]; Table 1-3-2-2, read-out: hTfR SPR pH7.4 KD): 5.77 nM |
| – | 81.6 | CC[C@H](C)[C@@H]1NC(=O)[C@H](Cc2ccc(OC)cc2)NC(=O)[C@H](Cc2ccc(N)nc2)NC(=O)[C@H](CC(N)=O)NC(=O)[C@H](Cc2cnc3ccccn23)NC(=O)[C@H](C(C)C)NC(=O)[C@H](Cc2cccc(Cl)c2)N(C)C(=O)[C@H](C(C)C)NC(=O)[C@H](C)NC(=O)CSC[C@@H](C(=O)NCC(=O)N[C@H](CCC(=O)O)C(=O)N[C@H](CCC(=O)O)C(=O)N[C@H](CCC(=O)O)C(=O)N[C@H](CO)C(=O)N[C@H](CO)C(=O)N[C@@H](CCCCN=[N+]=[N-])C(N)=O)NC(=O)[C@H](Cc2ccc(C(=O)O)cc2)N(C)C(=O)[C@H](Cc2ccncc2)NC(=O)[C@H](CCCNC(=N)N)NC(=O)[C@H](CCCNC(=N)N)NC(=O)[C@H]([C@@H](C)CC)NC1=O [compound 200] | – |
| – | 212 | CC[C@H](C)[C@@H]1NC(=O)[C@H](Cc2ccc(OC)cc2)NC(=O)[C@H](Cc2ccc(N)nc2)NC(=O)[C@H](CC(N)=O)NC(=O)[C@H](Cc2cnc3ccccn23)NC(=O)[C@H](C(C)C)NC(=O)[C@H](Cc2ccccc2)N(C)C(=O)[C@H](C(C)C)NC(=O)[C@H](C)NC(=O)CSC[C@@H](C(=O)NCC(=O)N[C@H](CCC(=O)O)C(=O)N[C@H](CCC(=O)O)C(=O)N[C@H](CCC(=O)O)C(=O)N[C@H](CO)C(=O)N[C@H](CO)C(=O)N[C@@H](CCCCN=[N+]=[N-])C(N)=O)NC(=O)[C@H](Cc2ccc(C(=O)O)cc2)N(C)C(=O)[C@H](Cc2ccncc2)NC(=O)[C@H](CCCNC(=N)N)NC(=O)[C@H](CCCNC(=N)N)NC(=O)[C@H]([C@@H](C)CC)NC1=O [compound 201] | – |
| – | 515 | CC[C@H](C)[C@@H]1NC(=O)[C@H](Cc2ccc(OC)cc2)NC(=O)[C@H](Cc2ccc(N)nc2)NC(=O)[C@H](CC(N)=O)NC(=O)[C@H](Cc2cnc3ccccn23)NC(=O)[C@H](C(C)C)NC(=O)[C@H](Cc2ccccc2)N(C)C(=O)[C@H](C(C)C)NC(=O)[C@H](C)NC(=O)CSC[C@@H](C(=O)NCC(=O)N[C@H](CCC(=O)O)C(=O)N[C@H](CCC(=O)O)C(=O)N[C@H](CCC(=O)O)C(=O)N[C@H](CO)C(=O)N[C@H](CO)C(=O)N[C@@H](CCCCN=[N+]=[N-])C(N)=O)NC(=O)[C@H](Cc2ccc(O)cc2)N(C)C(=O)[C@H](Cc2ccncc2)NC(=O)[C@H](CCCNC(=N)N)NC(=O)[C@H](CCCNC(=N)N)NC(=O)[C@H]([C@@H](C)CC)NC1=O [compound 202] | – |
